# Test results taken from PubChem BioAssay (NCI).
#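 These data come from cells grown in 96-well plates and exposed to compound for 48 hours at five concentrations. Abbreviation: GI50, concentration required for 50% inhibition of growth. TGI denotes the concentration required for complete inhibition of growth.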
# What was measured:
# Assay in all cases: inhibition of tumour cell growth, NCI panel, 48 h
# [1] = test system: NCI-H226 lung
# [2] = test system: DU-145 prostate
# [3] = test system: UACC-257 melanoma
# [4] = test system: BT-549 breast
# [5] = test system: T-47D breast
# [6] = test system: SK-MEL-5 melanoma
# [7] = test system: MOLT-4 leukemia
# [8] = test system: OVCAR-8 ovarian
# [9] = test system: HOP-62 NSCLC
# [10] = test system: SK-OV-3 ovarian
# [11] = test system: UACC-62 melanoma
# [12] = test system: 786-0 renal
# [13] = test system: SNB-75 CNS
# [14] = test system: A549 NSCLC
# [15] = test system: SK-MEL-28 melanoma
# [16] = test system: IGROV1 ovarian
# [17] = test system: NCI-H460 lung
# [18] = test system: SNB-19 CNS
# [19] = test system: SF-268 CNS
# [20] = test system: U251 CNS
# [21] = test system: OVCAR-4 ovarian
# [22] = test system: EKVX NSCLC
# [23] = test system: SN12C renal
# [24] = test system: MDA-MB-435
# [25] = test system: M14 melanoma
# [26] = test system: SR leukemia
# [27] = test system: HS 578T breast
# [28] = test system: NCI-H522 lung
# [29] = test system: CAKI-1 renal
structure (smiles),measurement,setting,value
Cc1ccc2c(-c3ccnc(Nc4ccc5c(c4)OCCO5)n3)c(-c3ccc(C(F)(F)F)cc3)nn2n1,GI50,[1],11.5 µM
same,TGI,[1],> 25 µM
same,GI50,[2],> 20.6 µM
same,TGI,[2],> 25 µM
same,GI50,[3],4.21 µM
same,TGI,[3],13.2 µM
same,GI50,[4],4.45 µM
same,TGI,[4],> 25 µM
same,GI50,[5],1.78 µM
same,TGI,[5],> 25 µM
same,GI50,[6],2.04 µM
same,TGI,[6],7.42 µM
same,GI50,[7],6.89 µM
same,TGI,[7],> 25 µM
same,GI50,[8],8.48 µM
same,TGI,[8],> 25 µM
same,GI50,[9],24.8 µM
same,TGI,[9],> 25 µM
same,GI50,[10],3.8 µM
same,TGI,[10],> 25 µM
same,GI50,[11],5.84 µM
same,TGI,[11],> 25 µM
same,GI50,[12],> 21.3 µM
same,TGI,[12],> 25 µM
same,GI50,[13],> 8.65 µM
same,TGI,[13],> 25 µM
same,GI50,[14],13.3 µM
same,TGI,[14],> 25 µM
same,GI50,[15],> 25 µM
same,TGI,[15],> 25 µM
same,GI50,[16],2.76 µM
same,TGI,[16],> 25 µM
same,GI50,[17],5.66 µM
same,TGI,[17],> 25 µM
same,GI50,[18],> 25 µM
same,TGI,[18],> 25 µM
same,GI50,[19],> 25 µM
same,TGI,[19],> 25 µM
same,GI50,[20],20.8 µM
same,TGI,[20],> 25 µM
same,GI50,[21],8.59 µM
same,TGI,[21],> 25 µM
same,GI50,[22],4.72 µM
same,TGI,[22],> 25 µM
same,GI50,[23],5.26 µM
same,TGI,[23],> 25 µM
same,GI50,[24],17.2 µM
same,TGI,[24],> 25 µM
same,GI50,[25],3.58 µM
same,TGI,[25],9.43 µM
same,GI50,[26],17 µM
same,TGI,[26],> 25 µM
same,GI50,[27],12.4 µM
same,TGI,[27],> 25 µM
same,GI50,[28],4.57 µM
same,TGI,[28],21.4 µM
same,GI50,[29],1.42 µM
same,TGI,[29],> 25 µM
